Active and inactive are the calls of the source. The rule behind the calls is not given here.
Test system: KB
Test: Cytotoxicity against human KB cells at 4 ug/ml
Type: functional, cell-based

Structure (SMILES) | Activity
C[C@@H]1O[C@@H](O[C@H]2CC[C@]3(C)[C@H]4CC=C5[C@@H]6CC(C)(C)CC[C@]6(C(=O)O)CC[C@@]5(C)[C@]4(C)CC[C@H]3C2(C)C)[C@H](O[C@@H]2O[C@H](CO)[C@@H](O)[C@H](O)[C@H]2O)[C@H](O[C@@H]2O[C@H](CO)[C@@H](O[C@@H]3O[C@H](CO)[C@H](O)[C@H](O[C@@H]4OC[C@@H](O)[C@H](O)[C@H]4O)[C@H]3O)[C@H](O)[C@H]2O)[C@H]1O | inactive
C[C@@H]1O[C@@H](O[C@H]2CC[C@@]3(C)[C@@H](CC[C@]4(C)[C@@H]3CC=C3[C@@H]5CC(C)(C)CC[C@]5(C(=O)O)CC[C@]34C)[C@]2(C)CO)[C@H](O[C@@H]2O[C@H](CO)[C@@H](O)[C@H](O)[C@H]2O)[C@H](O)[C@H]1O | inactive
C[C@@H]1O[C@@H](O[C@H]2[C@H](O)[C@@H](O)[C@H](O[C@H]3[C@H](O)[C@@H](O)[C@H](O[C@@H]4[C@@H](O)[C@@H](O)[C@H](O[C@H]5[C@H](O)[C@@H](O)[C@H](O[C@H]6[C@H](O)[C@@H](O)[C@H](OC(=O)[C@]78CCC(C)(C)C[C@H]7C7=CC[C@@H]9[C@@]%10(C)CC[C@H](O[C@@H]%11O[C@@H](C)[C@H](O)[C@@H](O)[C@H]%11O[C@@H]%11O[C@H](CO)[C@@H](O)[C@H](O)[C@H]%11O)[C@@](C)(CO)[C@@H]%10CC[C@@]9(C)[C@]7(C)CC8)O[C@@H]6CO)O[C@@H]5CO)O[C@H]4C)O[C@@H]3CO)O[C@@H]2CO)[C@H](O)[C@H](O)[C@H]1O | inactive
C[C@@H]1O[C@@H](O[C@H]2[C@H](O)[C@@H](O)[C@H](O[C@H]3[C@H](O)[C@@H](O)[C@H](OC(=O)[C@]45CCC(C)(C)C[C@H]4C4=CC[C@@H]6[C@@]7(C)CC[C@H](O[C@@H]8O[C@@H](C)[C@H](O)[C@@H](O[C@@H]9O[C@H](CO)[C@@H](O[C@@H]%10O[C@H](CO)[C@H](O)[C@H](O[C@@H]%11OC[C@@H](O)[C@H](O)[C@H]%11O)[C@H]%10O)[C@H](O)[C@H]9O)[C@H]8O[C@@H]8O[C@H](CO)[C@@H](O)[C@H](O)[C@H]8O)C(C)(C)[C@@H]7CC[C@@]6(C)[C@]4(C)CC5)O[C@@H]3CO)O[C@@H]2CO)[C@H](O)[C@H](O)[C@H]1O | inactive
C[C@@H]1O[C@@H](O[C@H]2[C@H](O)[C@@H](O)[C@H](O[C@H]3[C@H](O)[C@@H](O)[C@H](OC(=O)[C@]45CCC(C)(C)C[C@H]4C4=CC[C@@H]6[C@@]7(C)CC[C@H](O[C@@H]8O[C@@H](C)[C@H](O)[C@@H](O[C@@H]9O[C@H](CO)[C@@H](O[C@@H]%10O[C@H](CO)[C@H](O)[C@H](O[C@@H]%11OC[C@@H](O)[C@H](O)[C@H]%11O)[C@H]%10O)[C@H](O)[C@H]9O)[C@H]8O[C@@H]8O[C@H](CO)[C@@H](O)[C@H](O)[C@H]8O)C(C)(C)[C@@H]7CC[C@@]6(C)[C@]4(C)C[C@H]5O)O[C@@H]3CO)O[C@@H]2CO)[C@H](O)[C@H](O)[C@H]1O | inactive
C[C@@H]1O[C@@H](O[C@H]2CC[C@]3(C)[C@H]4CC=C5[C@@H]6CC(C)(C)CC[C@]6(C(=O)O)[C@H](O)C[C@@]5(C)[C@]4(C)CC[C@H]3C2(C)C)[C@H](O[C@@H]2O[C@H](CO)[C@@H](O)[C@H](O)[C@H]2O)[C@H](O[C@@H]2O[C@H](CO)[C@@H](O[C@@H]3O[C@H](CO)[C@H](O)[C@H](O[C@@H]4OC[C@@H](O)[C@H](O)[C@H]4O)[C@H]3O)[C@H](O)[C@H]2O)[C@H]1O | inactive

Source: ChEMBL document CHEMBL1159298, “Leonticins A-C, three octasaccharide saponins from Leontice kiangnanensis” (J Nat Prod, 1996)
